Data: patent US5807861A, “Amine substituted xanthinyl compounds” (Cell Therapeutics, Inc., priority 1995, dated 1998)
Values belong to the compound of their own block, whether it stands above or below them.

Columns and labels:
[1] = tested on: mouse femoral marrow CFU-GM; settings: in vivo
From the text: Mouse spleen conditioned-medium, at a concentration of 2%, was used in this assay. The medium and semi-solid culture mix were procured from Stem Cell Technologies in Vancouver, BC.

human stromal cells [2] = assay: Comparative: PDGF-BB-induced proliferation in human stromal cells; assay type: cell-based; settings: 50 ng/ml PDGF-BB; drugs added one hour prior (FIG. 23)
Experimental: Human stromal cells were starved in serum-free media for 24 hours and then stimulated with 50 ng/ml PDGF-BB. The drugs were added at various concentrations one hour prior to PDGF stimulation. Tritiated thymidine was added at the time of PDGF stimulation and pulsed for 24 hours. Cells were harvested and cell proliferation measured (FIG. 23). Background counts (i.e., starved cells) were about 10% of control levels.

human stromal cells [3] = assay: PDGF-induced proliferation in human stromal cells; assay type: cell-based; settings: 50 ng/ml PDGF; compound added one hour prior; various concentrations (FIG. 1)
Experimental: 3506 on PDGF-induced proliferation in human stromal cells. Procedurally, human stromal cells were starved in serum-free media for 24 hours and then stimulated with 50 ng/ml PDGF. Compound no. 3506 was added at various concentrations one hour prior to PDGF stimulation and pulsed for 24 hours. Cells were harvested and cell proliferation measured having background counts (i.e., starved cells) at about 10% of control levels.

thymocytes = assay: thymocyte proliferation co-stimulated with Con A and IL-2; assay type: cell-based, mouse (Balb/C); settings: co-stimulated with Con A and IL-2, various concentrations
Experimental: 3506, 3556, 3563, 3576, 3581, 3582 and 3584 on thymocyte proliferation and activation, co-stimulated with Concanavalin A (Con A) and interleukin-2 (IL-2), at various concentrations of the compounds (IC50). Con A and IL-2 together stimulate T cell proliferation and differentiation.
Thymuses, obtained from normal, female Balb/C mice, were dissociated and plated into 96-well plates at a density of 2×10^5 cells/well. Con A ([…]) and IL-2 (15 U/ml) were added to the wells. The cells were incubated for 4 days at 37° C. On day 4, the cells were pulsed with tritiated thymidine and incubated for an additional 4 hours. Incorporated tritiated thymidine of harvested cells was determined in a liquid scintillation counter. Results plotted as dose concentration versus proliferation for inventive compounds nos. 3506, 3556, 3563, 3576, 3581, 3582 and 3584 are shown in FIGS. 6 (3506), 7 (3556), 8 (3563), 9 (3576), 10 (3581 and 3582) and 11 (3584). Respective concentrations of inventive compound (shown in the figures) were added two hours prior to Con A and IL-2 activation. Background counts were less than 200 cpm.

[4] = tested on: mouse bone marrow cells (CFU-GM); assay: CFU-GM colony assay, effect on normal mouse bone marrow cells; assay type: cell-based; settings: for cytotoxicity to normal mouse marrow cells: 8 h incubation, 7 days colony growth; for effect on normal cells compared to known chemotherapeutic compounds: in vitro, vs vinblastine, 5-fluorouracil, doxorubicin or cisplatinum
From the text: This example illustrates a method for examining an effect of the inventive compounds, showing potential as cancer therapies, on normal cells. This assay has been used clinically to evaluate recovery of patients' marrow following chemotherapy or radiation. In this specific example, inventive compounds nos.
Mouse bone marrow cells are useful in this assay because they produce colonies, which can later be counted, in culture. The colonies are called colony forming unit-granulocyte macrophage (CFU-GM) and depend on a source of colony stimulating factor for growth.
Cells were cultured with inventive compounds nos. 3563, 3576, 3581, 3584 and 4500, to comparatively evaluate an effect on normal cells of inventive compounds identified as potential cancer therapies. Procedurally, cells were incubated for 8 hours with various concentrations of these compounds. A negative control without any compound was simultaneously prepared. After 8 hours, the incubated cells were washed thoroughly and a consistent number were subsequently plated to obtain CFU-GM. Colonies were permitted to grow for 7 days at 37° C., in 5% CO2. After 7 days of growth, colony growths were counted microscopically. Data obtained in this assay for inventive compounds nos. 3563, 3576, 3581, 3584 and 4500 are plotted in FIGS. 12, 13, 14, 15 and 16, respectively. The data in the figures are shown to compare the colonies counted for cells incubated with varying concentrations of the compounds tested against the negative control, without compound. At concentrations ranging from 5 to 30 μM, more colonies existed for cells incubated with the inventive potential cancer compound than with known, chemotherapeutic agents. Compound no.

[5] = tested on: polymorphonuclear leukocytes; settings: U.S. Pat. No. 4,636,507; cited from earlier work
[6] = tested on: tumor necrosis factor (TNF); settings: PTX recipients; cited from earlier work
certain cytokines = settings: U.S. Pat. Nos. 4,965,271 and 5,096,906; cited from earlier work
PAPH = settings: specific activation pathway that does not involve PI; cited from earlier work
Balb/3T3 cells = assay: Balb/3T3 viability (cytotoxicity) assay with BCECF; assay type: cell-based; settings: BCECF fluorescence; concentrations shown in FIGS. 1, 2 and 4; control value of 100%
Experimental: In conjunction with the Balb/3T3 proliferation assay, a related viability assay was conducted to assess the cytotoxicity of compounds which inhibit proliferation in this system. The assay protocol was identical to that performed above except that tritiated thymidine was not added after the 24 hour incubation with PDGF. In this cytotoxicity assay, after incubating the cells, a 10 μM solution of BCECF was added and the cells were incubated for 30 minutes at 37° C. Following this incubation, BCECF was replaced with PBS and the plate read for fluorescence in a Millipore cytofluorometer. Data obtained was plotted as a percent of control versus concentration of inventive compound tested. FIGS. 3 and 5 represent the results of this viability assay, for compounds nos. 3556 and 4500, respectively.

JR-CSF strain of HIV-1 = assay: JR-CSF HIV-1 infection of human peripheral blood lymphocytes (p24 antigen ELISA); assay type: cell-based, HIV-1 (in human PBL); settings: 10 and 20 μM
Experimental: In a protocol for infecting a PBL cell suspension, JR-CSF HIV-1 was clarified at low-speed centrifugation (2,000-3,000 rpm) or filtration and stored in aliquots at -70° C. To maintain consistent titers, HIV-1 aliquots were not subjected to repeated freezing and thawing and any remainder was discarded. Virus aliquots were thawed at room temperature or under cold running water for more rapid thawing and maintained in ice after thawing. Just prior to infection of PBL cells, the supernatant or dilution were warmed to room temperature.
Human PBL cells taken from a suitable donor were centrifuged down at 1000 rpm for 5-10 minutes at room temperature. While cells were spinning, the virus inoculum was prepared in medium by adding 10 μg/ml Polybrene®. The centrifuged cells were resuspended in virus inoculum, using 1 ml of virus inoculum per 10^7 cells. A more efficient HIV-1 infection is obtained with smaller amounts of inoculum. The cells were incubated at 37° C. in the presence of virus inoculum for 2 hours, shaking the suspension every half hour. After 2 hours, the suspension was spun down, the virus inoculum removed and the cells were washed with 10 ml of fresh media.
The infected cells, inoculated with virus at a concentration of 10 ng virus/10^6 PBL, were washed and resuspended in growth medium ([…] RPMI/20 % FBS/10 units/ml IL-2). […]

293-EBNA cells = assay: 293-EBNA cell viability (alamarBlue); assay type: cell-based
Experimental: The effect of respective inventive compounds on the viability of 293-EBNA cells was measured by a colorimetric assay that uses the alamarBlue® dye (purchased from Alamar Biosciences, Inc.) to report cell proliferation, viability and cytotoxicity. This dye is an oxidation-reduction (Redox) indicator that changes color in response to chemical reduction of growth medium resulting from cell growth. The general procedure involves adding alamar-Blue® in an amount equal to 10% of the culture volume, returning the culture to incubator for four hours, and measuring the absorbance at 570 nm after subtraction of background absorbance at 600 nm.

CFU-GM detectable in mouse femoral marrow [1]: no CFU-GM were detectable
Compound: O=c1[nH]cc(F)c(=O)[nH]1 [5-fluorouracil]

Compound: CC(=O)CCCCCCn1c(=O)c2c(ncn2C)n(C)c1=O [A, 1-(7-oxooctyl)-3,7-dimethylxanthine]
concentrations at which activity on PDGF-induced proliferation is apparent (human stromal cells [2]): millimolar concentrations

Compound: CC(CCCCn1c(=O)c2c(ncn2C)n(C)c1=O)N(C)C (centres unmarked) [B, 1-(5-dimethylaminohexyl)-3,7-dimethylxanthine]
concentrations at which activity on PDGF-induced proliferation is apparent (human stromal cells [2]): millimolar concentrations

Compound: CCCCCCCCCCCNCCCCCCn1c(=O)c2c(ncn2C)n(C)c1=O [Compound no. 3506]
inhibition of PDGF-induced proliferation (human stromal cells [3]): inhibition of PDGF-induced proliferation
effect on thymocyte proliferation and activation (thymocytes): inhibitive effect

effect on normal cells compared to known chemotherapeutic compounds [4]: less deleterious to normal cells
Compound: CCCCCCCCCCCCNCCCCCCCCCCCn1c(=O)c2c(ncn2C)n(C)c1=O [Compound no. 3563]
effect on thymocyte proliferation and activation (thymocytes): inhibitive effect
cytotoxicity to normal mouse marrow cells [4]: most cytotoxic to proliferative potential of the mouse marrow cells

Compound: CC(O)CCCCn1c(=O)c2c(ncn2C)n(C)c1=O (centres unmarked) [M1, 1-(5-hydroxyhexyl)-3,7-dimethylxanthine]
chemotaxis in polymorphonuclear leukocytes responding to chemotaxis stimulation [5]: enhance chemotaxis

Compound: CC(=O)CCCCn1c(=O)c2c(ncn2C)n(C)c1=O [PTX, 1-(5-oxohexyl)-3,7-dimethylxanthine]
TNF levels in normal volunteers [6]: TNF levels were higher
effect on activity of certain cytokines to affect chemotaxis (certain cytokines): inhibit activity of certain cytokines
effect on PAPH (PAPH): blocks PAPH
chemotaxis in polymorphonuclear leukocytes responding to chemotaxis stimulation [5]: enhance chemotaxis

Compound: CCCCCCCCNCCCCCCCCCCCn1c(=O)c2c(ncn2C)n(C)c1=O [compound 3556, 1-(11-octylaminoundecyl)-3,7-dimethylxanthine]
cytotoxicity at the concentrations that inhibit proliferation (Balb/3T3 cells): not cytotoxic to any cells
effect on thymocyte proliferation and activation (thymocytes): inhibitive effect
effect on HIV-1 viral infection (JR-CSF strain of HIV-1): virtually eliminated viral infection
concentration at which cytotoxicity becomes significant (293-EBNA cells): > 10 µM

effect on normal cells compared to known chemotherapeutic compounds [4]: less deleterious to normal cells
Compound: CCCCCCCCCCCCN(C)CCCCCCCCCCCn1c(=O)c2c(ncn2C)n(C)c1=O [compound 3576]
effect on thymocyte proliferation and activation (thymocytes): inhibitive effect

effect on normal cells compared to known chemotherapeutic compounds [4]: less deleterious to normal cells
Compound: CCCCCCCCCCNCCCCCCCCCCCn1c(=O)c2c(ncn2C)n(C)c1=O [compound 3581]
effect on thymocyte proliferation and activation (thymocytes): inhibitive effect

Compound: CCCCCCCCCCCCCCNCCCCCCCCCCCn1c(=O)c2c(ncn2C)n(C)c1=O [compound 3582]
effect on thymocyte proliferation and activation (thymocytes): inhibitive effect

effect on normal cells compared to known chemotherapeutic compounds [4]: less deleterious to normal cells
Compound: CCCCCCCCCCCCCCCCNCCCCCCCCCCCn1c(=O)c2c(ncn2C)n(C)c1=O [compound 3584]
effect on thymocyte proliferation and activation (thymocytes): inhibitive effect

Compound: CCCCCCN(CCCCCC)CCCCCCCCCCCn1c(=O)c2c(ncn2C)n(C)c1=O [compound 3590]
concentration at which there is still little cytotoxicity (293-EBNA cells): > 32 µM

Compound: COc1cc(CNCCCCCCCCCCCn2c(=O)c3c(ncn3C)n(C)c2=O)cc(OC)c1OC [compound 3593]
concentration at which there is still little cytotoxicity (293-EBNA cells): > 32 µM

Compound: CCCCCCN(C)CCCCCCCCCCCn1c(=O)c2c(ncn2C)n(C)c1=O [compound 4500]
cytotoxicity at the concentrations that inhibit proliferation (Balb/3T3 cells): not cytotoxic to any cells
cytotoxicity to normal mouse marrow cells [4]: virtually no toxicity at elevated concentrations for the normal mouse marrow cells
concentration at which there is still little cytotoxicity (293-EBNA cells): > 32 µM
